The text below walks through data of patent US20240390286A1, “PREPARATION OF PHARMACEUTICAL COMPOSITIONS USING SUPERCYCLE VAPOR PHASE DEPOSITION OF METAL OXIDES” (Applied Materials, Inc., priority 2023, published 2024).

Each structure is given as a SMILES string.

Type in all cases: physicochemical
Data set [1] is described as follows: Particle size distribution by laser diffraction before and after coating. From the text:
As shown in the table below, there is no significant change in particle size distribution after the coating process.

Data set [2] is described as follows: Indomethacin dissolution, pH 7.2 sodium phosphate buffer, USP2 apparatus (paddle). The settings on record: 37° C., 100 rpm. How it is done:
In some embodiments, the dissolution or drug release of the coated particles can be assessed by an in vitro release over time (dissolution) analysis. In some embodiments, the dissolution or drug release of the coated particles can be assessed by HPLC analysis. In some embodiments, the dissolution is assessed in methanol. In some embodiments, the dissolution is assessed in a sodium phosphate buffer solution (PBS) (e.g., pH 7.2, with or without surfactant) at 37° C., with a stirring of 100 revolutions per minute (RPM), for more than 1 minute, more than 2 minutes, more than 5 minutes, more than 10 minutes, more than 20 minutes, more than 30 minutes, more than 40 minutes, more than 50 minutes, more than 60 minutes, more than 120 minutes, more than 3 hours, more than 4 hours, more than 5 hours, more than 6 hours, more than 7 hours, more than 8 hours, more than 12 hours, more than 16 hours, more than 24 hours. In some embodiments, the coated particles have a reduced dissolution rate compared to uncoated drug particles. […]

Data set [3] is described as follows: Indomethacin dissolution, pH 7.2 PIPES buffer, USP4 apparatus (flow through). The conditions noted are these: 37° C., 16 ml/min. As to the method:
FIG. 8 depicts the results of a study of indomethacin dissolution in pH 7.2 PIPES buffer solution in a USP4 dissolution apparatus (flow through) at 37° C. at a 16 ml/min flow rate. […] Again, the indomethacin release rates for AZO coated particles were in between that of ZnOx coated particles and that of AlOx coated particles. The release rate of AZO coated particles decreases as the Al/Zn ratio increases.

In the case of `COc1ccc2c(c1)c(CC(=O)O)c(C)n2C(=O)c1ccc(Cl)cc1` [UC-m-IMC, indomethacin], in data set [1] (laser diffraction), the D10 is given as 4.4 ± 0.4 μm, the D50 was 13.3 ± 0.1 μm and the D90 is recorded as 24.5 ± 0.5 μm. For the same compound, the Span in data set [1] (laser diffraction size distribution) worked out at 1.5. Also, the indomethacin release profile result in data set [2] is given as “immediate indomethacin release profile”. Besides, the indomethacin release profile entry in data set [3] is on record as “immediate indomethacin release”.
